We go through 25 compounds from PubChem BioAssay (NCI).

Common to all, as to experiment: DTP human tumour cell line panel, 48 h
In assay [1] the test system is 786-0 renal.
In assay [2] the test system is A549 NSCLC.
The test system of assay [3] is HCC-2998 colon.
In assay [4] the test system is HCT-116 colon.
Assay [5] has as its system HOP-92 NSCLC.
In assay [6] the test system is HT29 colon.
The test system of assay [7] is IGROV1 ovarian.
Assay [8] deals with MCF7 breast.
In assay [9] the test system is SN12C renal.
The test system of assay [10] is SNB-19 CNS.
Assay [11] deals with SNB-75 CNS.

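Dose response: 5 concentrations. Exposure: 48 h. Format: 96-well plates. Endpoint: linear interpolation; highest concentration if not reached. GI50 marks 50% less growth. TGI: total growth inhibition.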

Regarding `O=C1CSC(c2c[nH]c3ccccc23)N1c1ccc(Cl)cc1Cl` (stereo unspecified), the TGI in [1], in assay [2], in assay [3], in assay [4], in [5] and in assay [6] was above 100 µM throughout. In addition, the TGI in [7], in [8], in [9], in [10] and in [11] was above 100 µM in each case.

Take `CC1=NN2C(=N)/C(=C/c3ccc(F)cc3)C(=O)N=C2S1`: the TGI in [1], in assay [2], in [3], in [4], in assay [5] and in assay [6] was above 100 µM throughout. Further, the TGI in assay [7], in [8], in [9], in assay [10] and in assay [11] was above 100 µM throughout.

As for `Cc1c(C(=O)NNc2ccccc2)n2c(=S)[nH]nc2c2ccccc12`, the TGI in [1], in assay [2], in assay [3], in [4], in assay [5] and in assay [6] was above 100 µM in each case. The TGI in assay [7], in assay [8], in assay [9], in assay [10] and in assay [11] was above 100 µM throughout.

With `N#Cc1c(-c2ccc([N+](=O)[O-])cc2)c(C#N)c(=O)n(NS(=O)(=O)c2ccccc2)c1O`, the TGI in assay [1], in assay [2], in [3], in assay [4], in assay [5] and in assay [6] was above 100 µM in each case. Moreover, the TGI was above 100 µM in [7], above 100 µM in assay [8], above 100 µM in assay [9] and 35.5 µM in [10].

On to `CC(C)=CCC[C@@H](C)C1=C(Nc2ccccc2F)C(O)=C(C)C(=O)C1=O`, for which the TGI in [1] was above 100 µM; in assay [2], above 44.9 µM; in assay [3] it was 38.1 µM; in assay [4], above 35.7 µM; in [5], above 69.9 µM; in assay [6], 24.3 µM. For the same compound, the TGI in assay [7] was above 39.1 µM; in assay [8], 81.6 µM; in assay [9], above 100 µM; in [10] it was above 100 µM; in assay [11] it was above 100 µM.

As for `CC(C)=C/C(CC(O)(C(F)(F)F)C(F)(F)F)=N\O`, the TGI in assay [1], in assay [2], in assay [3], in [4], in [5] and in [6] was above 100 µM throughout. Besides, the TGI in assay [7], in [8], in assay [9], in [10] and in assay [11] was above 100 µM throughout.

Take `O=C1c2cc3c(cc2CC12Cc1ccc4c(c1C2=O)CCC4)CCC3` (stereo unspecified): the TGI in assay [1], in assay [2], in assay [3], in assay [4], in assay [5] and in assay [6] was above 100 µM in each case. Further, the TGI in assay [7], in [8], in assay [10] and in [11] was above 100 µM in each case.

As for `CCC1([N+](=O)[O-])CN(N=O)C1`, the TGI in assay [1], in [2], in [4], in [5], in assay [6] and in assay [7] was above 100 µM throughout. In addition, the TGI in assay [8], in [9], in assay [10] and in [11] was above 100 µM each time.

Regarding `CC1(C)OCC(C2OC(C)(C)OC2[C@H]2O[C@@]3(O)[C@H]4[C@H](C=CC[C@@H]42)[C@@H](OCc2ccccc2)[C@H](OCc2ccccc2)[C@H]3OCc2ccccc2)O1` (stereo partly specified), the TGI in assay [1] was above 100 µM; in assay [2], above 100 µM; in [4], above 100 µM; in assay [5] it was above 100 µM; in [6] it was 71.3 µM; in assay [7], above 100 µM. Also, the TGI in assay [8], in [9], in assay [10] and in [11] was above 100 µM throughout.

On to `CCOC(=O)N1CCN(c2c(N)nc(C)[nH]c2=O)CC1`, for which the TGI in assay [1], in [2], in [3], in assay [4], in assay [5] and in assay [6] was above 100 µM each time. Moreover, the TGI in assay [8], in assay [9], in assay [10] and in assay [11] was above 100 µM in each case.

`Cc1cc(-c2ccccc2)nc2oc(=O)n(C)c12`: the TGI in assay [1], in assay [2], in assay [3], in assay [4], in assay [5] and in [6] was above 100 µM each time. Moreover, the TGI in assay [7], in [8], in [9] and in assay [10] was above 100 µM throughout.

Take `COc1ccc(C2c3cc4c(cc3OC(Nc3ccccc3)C2C)OCO4)cc1` (stereo unspecified): the TGI in assay [2], in assay [3], in [4], in assay [5], in assay [6] and in assay [7] was above 100 µM each time. The TGI in assay [8], in [9], in [10] and in assay [11] was above 100 µM in each case.

As for `Cc1ccc(C)c(COCCOCn2cc(N3CCOCC3)c(=O)[nH]c2=O)c1`, the total growth inhibition concentration (TGI) in [1], in assay [2], in [3], in assay [4], in [5] and in assay [7] was above 100 µM each time. Moreover, the TGI in assay [8], in assay [9], in assay [10] and in assay [11] was above 100 µM throughout.

Turning to `NC(=O)C1CCN(Cc2c(Cl)c(Cl)c(CN3CCC(C(N)=O)CC3)c(Cl)c2Cl)CC1`, the TGI in [1], in [2], in [3], in [4], in assay [5] and in assay [6] was above 100 µM throughout. Also, the TGI in [8] is above 100 µM; in [9] it was above 100 µM; in [10] it was above 100 µM; in [11] it was 63.6 µM.

Take `CNC(=S)N1CCN(C(C)=O)C1=S`: the TGI in [1], in assay [2], in assay [3], in assay [4], in assay [5] and in assay [6] was above 100 µM in each case. The TGI in assay [7] was above 100 µM; in [8], above 100 µM; in [9], above 100 µM; in assay [11], 72.9 µM.

Consider `O=C(Nc1nn(C(=O)c2cccnc2)c(=O)s1)c1ccc(Cl)cc1`, for which the TGI in assay [1], in [2], in [3], in assay [4], in assay [5] and in assay [6] was above 100 µM in each case. For the same compound, the TGI in assay [8] is above 100 µM; in assay [9], above 100 µM; in assay [10] it was above 100 µM; in [11], 82.2 µM.

With `CCN(CC)CCCCNc1c2ccc(Cl)cc2nc2ccc(OC)cc12`, the 50% growth inhibitory concentration (GI50) is 0.367 µM in assay [2]; 0.78 µM in assay [3]; 0.301 µM in [4]; 0.271 µM in assay [5]; 0.141 µM in assay [6]; 0.777 µM in assay [7]. Further, the GI50 in assay [8] is 0.294 µM; in assay [9], 0.438 µM; in assay [11], 1.09 µM. Further, the TGI in [2] was found to be 2.58 µM; in assay [3] it was 2.32 µM; in assay [4], 1.94 µM; in assay [5] it was 1.87 µM; in assay [6], 1.27 µM; in [7], 8.61 µM. The TGI in assay [8] stood at 1.69 µM; in assay [9], 2.61 µM; in assay [11], 2.39 µM.

Take `COc1ccc(-c2cc3cc(Cl)cc(Cl)c3oc2=O)cc1OC`: the TGI in assay [1], in assay [2], in assay [3], in [4], in [5] and in assay [6] was above 100 µM in each case. Further, the TGI in [7], in assay [8], in [9] and in [10] was above 100 µM in each case.

As to `Cc1cc(-c2cc(C(C)(C)C)c(O)c(C(C)(C)C)c2)c(C)cc1-c1cc(C(C)(C)C)c(O)c(C(C)(C)C)c1`, the TGI in assay [1] was above 100 µM; in assay [2] it was above 100 µM; in assay [4] it was above 100 µM; in assay [5], 38.2 µM; in [6], above 100 µM; in assay [7], above 100 µM. Moreover, the TGI in assay [8], in assay [9], in assay [10] and in assay [11] was above 100 µM throughout.

On to `CO[P@@]1(=O)O[C@@H](c2ccccc2)[C@H](O)[C@]1(O)c1ccccc1`, for which the TGI in assay [1], in assay [2], in assay [4], in [5], in [6] and in assay [7] was above 100 µM each time. Further, the TGI in assay [8], in assay [9], in assay [10] and in assay [11] was above 100 µM each time.

`OC(CC(O)(C(F)(F)Cl)C(F)(F)Cl)c1ccccc1` (stereo unspecified): the TGI in assay [2] is above 10 µM; in [3] it was above 10 µM; in [4] it was above 10 µM; in assay [5], above 10 µM; in [6], above 10 µM; in assay [7], 0.0883 µM. Also, the TGI in assay [8], in assay [9], in [10] and in assay [11] was above 10 µM in each case.

`CC1=C(C(=O)OCCO[N+](=O)[O-])C(c2ccccc2[N+](=O)[O-])C(C(=O)OC(C)C)=C(C)N1` (stereo unspecified): the TGI was determined as 41.4 µM in [1]; 41.9 µM in assay [2]; 29.5 µM in assay [3]; 29.8 µM in assay [4]; 31.4 µM in assay [5]; 30.3 µM in assay [6]. The TGI in assay [7] was determined as 34.9 µM; in assay [8], 44.9 µM; in [9], 34.9 µM; in assay [10] it was 39.6 µM.

For the compound `CC(C)(C)/C(O)=C\c1nc2cc(F)c(F)cc2[nH]c1=O`, the TGI in assay [1], in assay [3], in assay [4], in assay [5], in assay [6] and in assay [7] was above 100 µM throughout. The TGI in assay [8], in [10] and in [11] was above 100 µM throughout.

In the case of `Cc1cc(S(=O)(=O)N=C2Nc3cccc4cccc(c34)N2)c(S)cc1Cl`, the TGI in assay [1] was above 100 µM; in assay [2], above 100 µM; in assay [3], above 100 µM; in assay [4], 83.8 µM; in assay [5], above 100 µM; in assay [7], above 100 µM. The TGI in assay [8], in assay [10] and in [11] was above 100 µM each time.

As for `CN1c2ccccc2C2=C(c3ccccc3)CC[C@@H](C(=O)N3C4CC5CC[C@@]4(CS3(=O)=O)C5(C)C)[C@@H]21` (stereo partly specified), the TGI in assay [1], in assay [2], in assay [4], in [5], in assay [6] and in assay [7] was above 100 µM each time. The TGI in assay [8], in [9], in assay [10] and in [11] was above 100 µM throughout.
